Experimental data taken from ChEMBL document CHEMBL4219036, “Design and multi-step synthesis of chalcone-polyamine conjugates as potent antiproliferative agents” (Bioorg Med Chem Lett, 2017).

Columns and labels:
[1] = system: HCT-116; test: Antiproliferative activity against human HCT116 cells after 48 hrs by MTT assay; type: functional, cell-based; conditions: HCT-116, 48 h
[2] = system: HT-29; test: Antiproliferative activity against human HT-29 cells after 48 hrs by MTT assay; type: functional, cell-based; conditions: HT-29, 48 h
[3] = 1-octanol/water partition coefficient, log P of the compound at 300 uM by UV-Vis spectrophotometric analysis; type: physicochemical
[4] = system: PC-3; test: Antiproliferative activity against human PC3 cells after 48 hrs by MTT assay; type: functional, cell-based; conditions: PC-3, 48 h
[5] = system: DU-145; test: Antiproliferative activity against human DU145 cells after 48 hrs by MTT assay; type: functional, cell-based; conditions: DU-145, 48 h

SMILES | IC50 [1] [µM] | IC50 [2] [µM] | logP at 300 µM [3] | IC50 [4] [µM] | IC50 [5] [µM]
COc1cc(C(=O)/C=C/c2ccc(OCCCC(=O)NCCCNCCCCNCCN)cc2)cc(OC)c1OC | 33.8 | 98 | -1.98 | 34 | 35.4
COc1cc(C(=O)/C=C/c2ccc(OCCCC(=O)NCCCNCCCCN)cc2)cc(OC)c1OC | > 100 | > 100 | -1.43 | > 100 | > 100
COc1ccc(/C=C/C(=O)c2cc(OC)c(OC)c(OC)c2)cc1OCCCC(=O)NCCCCN(CCCN)CCCCNCCCN | 29.5 | 89.1 |  | 48.1 | 84.9
COc1ccc(/C=C/C(=O)c2cc(OC)c(OC)c(OC)c2)cc1OCCCC(=O)NCCCCNCCCN | 38 | > 100 | -1.28 | 51 | 99.3
COc1cc(C(=O)/C=C/c2ccc(OCCCC(=O)NCCCCN(CCCN)CCCCNCCCN)cc2)cc(OC)c1OC | 75.4 | 91.7 |  | 81.6 | 92.5
COc1ccc(/C=C/C(=O)c2cc(OC)c(OC)c(OC)c2)cc1OCCCC(=O)NCCCNCCCCN | > 100 | > 100 |  | 81 | > 100
COc1ccc(/C=C/C(=O)c2cc(OC)c(OC)c(OC)c2)cc1OCCCC(=O)NCCCCN(CCCN)CCCCN | 73.6 | 74.7 |  | 60.6 | 82.3
COc1ccc(/C=C/C(=O)c2cc(OC)c(OC)c(OC)c2)cc1OCCCC(=O)NCCCNCCCCNCCN | 55.8 | > 100 | -1.57 | 31.8 | 28.5

The next lines start with the values.

IC50 [1] [µM] | IC50 [2] [µM] | logP at 300 µM [3] | IC50 [4] [µM] | IC50 [5] [µM] | SMILES
20 | > 100 |  | 79.3 | 54.8 | COc1cc(C(=O)/C=C/c2ccc(OCCCC(=O)NCCCCNCCCN)cc2)cc(OC)c1OC
29.2 | 87.2 |  | 55.4 | 86.8 | COc1cc(C(=O)/C=C/c2ccc(OCCCC(=O)NCCCCN(CCCN)CCCCN)cc2)cc(OC)c1OC
10.7 | 7.4 | 3.1 | 7.8 | 13.8 | COc1ccc(/C=C/C(=O)c2cc(OC)c(OC)c(OC)c2)cc1
0.85 | 23.1 | 2.99 | 0.09 | 6.3 | COc1ccc(/C=C/C(=O)c2cc(OC)c(OC)c(OC)c2)cc1O
